In patent US9592231B2, “Therapy for complications of diabetes” (AbbVie Deutschland GmbH & Co. KG, priority 2007, dated 2017):
Read-outs that look alike come from different tables or passages of the source.

Tests used:
ETA [1] = target: T1, ETA (Homo sapiens, UniProt P25101); experiment: ETA affinity reported by Riechers et al (1996); assay type: binding; settings: calculated from the Riechers et al (1996) data
T1 sequence (P25101 21-427): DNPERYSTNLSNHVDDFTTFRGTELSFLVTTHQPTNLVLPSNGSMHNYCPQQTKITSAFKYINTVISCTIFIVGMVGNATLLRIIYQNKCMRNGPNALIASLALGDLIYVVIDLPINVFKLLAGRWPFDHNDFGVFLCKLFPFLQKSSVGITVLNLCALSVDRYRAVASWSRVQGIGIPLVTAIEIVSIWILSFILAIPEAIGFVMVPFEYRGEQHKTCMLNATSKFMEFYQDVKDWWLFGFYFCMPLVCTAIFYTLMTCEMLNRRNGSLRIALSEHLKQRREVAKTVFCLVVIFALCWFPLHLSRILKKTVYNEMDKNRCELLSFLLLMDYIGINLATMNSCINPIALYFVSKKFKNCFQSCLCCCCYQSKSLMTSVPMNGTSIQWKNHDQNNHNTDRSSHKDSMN

hyperglycemic rats = settings: type 2 diabetes model; cited from earlier work
[2] = tested on: rat model of insulin resistance; settings: rats, 5 mg/kg/day, cited from earlier work
moderate hypertension = settings: patients, 10 to 100 mg/day, by comparison with placebo; cited from earlier work
obese mice = settings: 50 mg/kg/day; cited from earlier work
[3] = tested on: streptozotocin-induced diabetes in rats; settings: 100 mg/kg/day; cited from earlier work
ETA [4] = target: T1, ETA; experiment: 125I-endothelin-1 receptor binding cold ligand competition, steady-state, human myocardial membranes; design: human myocardial membranes prepared from failing and non-failing left ventricles; from tissue; host or cells: human left-ventricular myocardium (failing and non-failing), membrane preparation; settings: mean of 8 assays
ETA [5] = target: T1, ETA; settings: Lip (2001); cited from earlier work
[6] = tested on: rats with streptozotocin-induced diabetes; settings: 100 mg/kg/day; cited from earlier work
resistant hypertension = settings: Myogen news release Aug. 18, 2005; cited from earlier work

## COc1cc(OC)nc(OC(C(=O)O)C(OC)(c2ccccc2)c2ccccc2)n1 (racemic) [racemate, 2-(4,6-dimethoxypyrimidin-2-yloxy)-3-methoxy-3,3-diphenylpropionic acid]
ETA [1]
  selectivity Ki(ETB)/Ki(ETA): about 62

## COC(c1ccccc1)(c1ccccc1)[C@H](Oc1nc(C)cc(C)n1)C(=O)O [BSF 208075]
Hyperglycemic rats
  plasma glucose levels: reduced

## CCCCN(CCCC)C(=O)CN1C[C@H](c2ccc3c(c2)OCO3)[C@@H](C(=O)O)[C@@H]1c1ccc(OC)cc1 [atrasentan]
[2]; meal tolerance test
  ΔAUC for glucose: significantly reduce
  ΔAUC for glucose-insulin index: significantly reduce
  ΔAUC for insulin: significantly reduce
[2]
  3-hour fasting glucose level: not
  3-hour fasting insulin level: significantly reduce

## COc1cc(OC)nc(O[C@H](C(=O)O)C(OC)(c2ccccc2)c2ccccc2)n1 [darusentan, (+)-(S)-2-[(4,6-dimethoxy-2-pyrimidinyl)oxy]-3-methoxy-3,3-diphenylpropionic acid]
Moderate hypertension
  DBP: significantly reduce
  SBP: significantly reduce
Obese mice
  increase in body weight: completely prevented
[3]
  plasma glucose levels: unaffected
  renal effects of streptozotocin-induced diabetes, including increased glomerular diameter and deposition of eosinophilic material within the glomeruli: partially or fully reversed
ETA [4]
  Ki(ETB)/Ki(ETA): 1181±148
ETA [5]
  selectivity Ki(ETB)/Ki(ETA): about 160
[6]
  glomerular matrix protein deposition: normalized
  serum glucose concentrations: neither compound was found to influence
Resistant hypertension
  results of clinical trial DAR-201: positive results
